{"source": "PubChem BioAssay AID1845205", "about": "(Molecular Pharmacology Branch, DTP, NCI, 2023)", "test_system": "MPNST multicellular tumor spheroids, viability % test/control", "assay": "Anticancer human tumor MPNST cell line growth inhibition;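 as to all read-outs here: spheroids exposed to agents for seven days after three days of growth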;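 as to viability, T/C: luminescence signal used as surrogate for viable cell amount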", "conditions": "for IC50: curve of first compound; for viability, T/C: stronger effect = lower value", "how_it_was_run": "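Complex tumor spheroids combined malignant cells with endothelial cells and mesenchymal stem cells. DNA-damaging drugs and DNA repair inhibitors were tested alone and in combination, at half-log dilutions down from clinical Cmax (top 10 microM if Cmax unknown), 0.25% DMSO final.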"}
{"smiles": "CC1COCCN1c1cc(-c2ccnn2C)c2ccnc(-c3ccn[nH]3)c2n1", "note": "(stereo not given) + COc1cc2c(cc1O)CCNC21CSC2c3c(OC(C)=O)c(C)c4c(c3C(COC1=O)N1C(O)C3Cc5cc(C)c(OC)c(O)c5C(C21)N3C)OCO4", "values": [{"measurement": "IC50", "setting": "second compound 30 pM", "result": "< 31.6", "unit": "nM"}, {"measurement": "IC50", "setting": "second compound 94.9 pM", "result": "< 31.6", "unit": "nM"}, {"measurement": "IC50", "setting": "second compound 0.0003 µM", "result": "< 31.6", "unit": "nM"}, {"measurement": "IC50", "setting": "second compound 0.000949 µM", "result": "< 31.6", "unit": "nM"}, {"measurement": "IC50", "setting": "second compound 0.003 µM", "result": "< 31.6", "unit": "nM"}, {"measurement": "viability, T/C", "setting": "second compound 30 pM, first compound 0.0316 µM", "result": 47.3, "unit": "%"}, {"measurement": "viability, T/C", "setting": "second compound 30 pM, first compound 0.1 µM", "result": 48.1, "unit": "%"}, {"measurement": "viability, T/C", "setting": "second compound 30 pM, first compound 0.316 µM", "result": 42, "unit": "%"}, {"measurement": "viability, T/C", "setting": "second compound 30 pM, first compound 1 µM", "result": 39.2, "unit": "%"}, {"measurement": "viability, T/C", "setting": "second compound 30 pM, first compound 3.16 µM", "result": 31.1, "unit": "%"}, {"measurement": "viability, T/C", "setting": "second compound 30 pM, first compound 10 µM", "result": 25.6, "unit": "%"}, {"measurement": "viability, T/C", "setting": "second compound 94.9 pM, first compound 0.0316 µM", "result": 47.8, "unit": "%"}, {"measurement": "viability, T/C", "setting": "second compound 94.9 pM, first compound 0.1 µM", "result": 44.8, "unit": "%"}, {"measurement": "viability, T/C", "setting": "second compound 94.9 pM, first compound 0.316 µM", "result": 39.4, "unit": "%"}, {"measurement": "viability, T/C", "setting": "second compound 94.9 pM, first compound 1 µM", "result": 33, "unit": "%"}, {"measurement": "viability, T/C", "setting": "second compound 94.9 pM, first compound 3.16 µM", "result": 29.2, "unit": "%"}, {"measurement": "viability, T/C", "setting": "second compound 94.9 pM, first compound 10 µM", "result": 25.6, "unit": "%"}, {"measurement": "viability, T/C", "setting": "second compound 0.0003 µM, first compound 0.0316 µM", "result": 47.8, "unit": "%"}, {"measurement": "viability, T/C", "setting": "second compound 0.0003 µM, first compound 0.1 µM", "result": 44.9, "unit": "%"}, {"measurement": "viability, T/C", "setting": "second compound 0.0003 µM, first compound 0.316 µM", "result": 38.7, "unit": "%"}, {"measurement": "viability, T/C", "setting": "second compound 0.0003 µM, first compound 1 µM", "result": 36.9, "unit": "%"}, {"measurement": "viability, T/C", "setting": "second compound 0.0003 µM, first compound 3.16 µM", "result": 28.8, "unit": "%"}, {"measurement": "viability, T/C", "setting": "second compound 0.0003 µM, first compound 10 µM", "result": 24.6, "unit": "%"}, {"measurement": "viability, T/C", "setting": "second compound 0.000949 µM, first compound 0.0316 µM", "result": 45.4, "unit": "%"}, {"measurement": "viability, T/C", "setting": "second compound 0.000949 µM, first compound 0.1 µM", "result": 41.2, "unit": "%"}, {"measurement": "viability, T/C", "setting": "second compound 0.000949 µM, first compound 0.316 µM", "result": 39.4, "unit": "%"}, {"measurement": "viability, T/C", "setting": "second compound 0.000949 µM, first compound 1 µM", "result": 31.3, "unit": "%"}, {"measurement": "viability, T/C", "setting": "second compound 0.000949 µM, first compound 3.16 µM", "result": 24.2, "unit": "%"}, {"measurement": "viability, T/C", "setting": "second compound 0.000949 µM, first compound 10 µM", "result": 20.7, "unit": "%"}, {"measurement": "viability, T/C", "setting": "second compound 0.003 µM, first compound 0.0316 µM", "result": 12.2, "unit": "%"}, {"measurement": "viability, T/C", "setting": "second compound 0.003 µM, first compound 0.1 µM", "result": 11.1, "unit": "%"}, {"measurement": "viability, T/C", "setting": "second compound 0.003 µM, first compound 0.316 µM", "result": 10.5, "unit": "%"}, {"measurement": "viability, T/C", "setting": "second compound 0.003 µM, first compound 1 µM", "result": 6.65, "unit": "%"}, {"measurement": "viability, T/C", "setting": "second compound 0.003 µM, first compound 3.16 µM", "result": 5.18, "unit": "%"}, {"measurement": "viability, T/C", "setting": "second compound 0.003 µM, first compound 10 µM", "result": 4.99, "unit": "%"}]}
